Results taken from patent publication US20260364078A1, “PURINE NUCLEOSIDE PHOSPHORYLASE INHIBITORS FOR THE TREATMENT OF METABOLIC SYNDROME AND ASSOCIATED CONDITIONS” (METASHAPE PHARMA AG, priority 2022, published 2026).

Key:
Type in all cases: in vivo, C57/BL6J mice
[1] = tested on: lymphocytes; assay: Example 4: total lymphocytes by flow cytometry in DIO mouse model; settings: 3 days a week, 4 weeks
Method: The aim of this study is to determine the effect of increasing doses of ulodesine hemi glutarate on lymphocytes in whole blood.
Method: C57/BL6J mice were fed obesogenic diet D12492 (60 kcal % fat) from age 6 weeks. Eighteen weeks old mice (approximately 40 g) were either treated with vehicle (control) or ulodesine hemi glutarate at 1, 2, 5, and 10 mg/kg for only 3 days a week (days 1, 2 and 3) given orally for 4 weeks. At the end of four weeks, flow cytometry was used to enumerate total lymphocytes.

[2] = tested on: DIO mouse model; assay: Example 2: low and intermittent dosing in DIO mouse model; settings: 2 mg/kg p.o., 3 days a week
Description: The aim of this study is to determine the effect of a low and intermittent dosing regime of ulodesine hemi glutarate on the following parameters: weight gain, food intake, fasting blood glucose concentration, serum insulin, serum cholesterol, plasma liver enzymes aspartate aminotransferase (AST) and alanine transaminase (ALT), inguinal white adipose tissue (iWAT), BAT; inosine in plasma and NAD+ in whole blood, and expression of lipogenesis (fatty acid synthesis) markers in iWAT and thermogenic markers in BAT. The study will assess ulodesine hemi glutarate efficacy on the listed parameters in the DIO mouse model of obesity and metabolic dysfunction.
(§1) Method: C57/BL6J mice were fed obesogenic diet D12492 (60 kcal % fat) from age 6 weeks. Nineteen week old mice (approximately 50 g) were either treated with vehicle (control) or ulodesine hemi glutarate at 2 mg/kg for 3 days a week (days 1, 2 and 3), given orally, over a 28 day period. On day minus 2 and on day 28, animals were fasted for 6 hr (only food withdrawn) and blood was collected for both blood glucose and cholesterol. On day 28 plasma liver enzymes (AST and ALT) and insulin were determined and additional plasma and whole blood was frozen and used for inosine and NAD+ measurement. BAT and iWAT was collected at the end of the study, weighed and quantitative PCR was performed for the lipogenesis markers Stearoyl CoA desaturase 1 (SCD-1) and fatty acid synthetase (FAS) and the thermogenesis marker uncoupling protein 1 (UCP-1). Inosine and NAD+ levels in stored plasma and whole blood respectively were determined by LC/MS/MS.

[3] = tested on: Stearoyl CoA desaturase 1 (SCD-1); assay: Example 2: quantitative PCR of lipogenesis marker SCD-1; settings: 2 mg/kg p.o., 3 days a week, 28 days; vs vehicle
Method: as §1

[4] = tested on: uncoupling protein 1 (UCP-1); assay: Example 2: quantitative PCR of thermogenesis marker in BAT; settings: 2 mg/kg p.o., 3 days a week, 28 days; vs vehicle
Method: as §1

[5] = tested on: Diet Induced Obesity (DIO) mouse model; assay: Example 1: low and intermittent dosing in DIO mouse model; settings: 2 mg/kg p.o., 3 days a week, 28 days
Description: The aim of the preliminary study is to determine the effect of low and intermittent dosing of ulodesine hemi glutarate on the following parameters: weight gain, food intake, fasting blood glucose concentration and serum cholesterol. The study assesses ulodesine hemi glutarate efficacy on the listed parameters in the DIO mouse model of obesity and metabolic dysfunction.
Method: C57/BL6J mice were fed obesogenic diet D12492 (60 kcal % fat) from age 6 weeks. Eighteen week old mice (approximately 40 g) were either treated with vehicle (control) or ulodesine hemi glutarate at 2 mg/kg for 3 days a week (days 1, 2 and 3) given orally, over a 28 day period. On day −2 and on day 28, animals were fasted for 6 hr by withdrawing food only, and blood was collected for both blood glucose and cholesterol measurements.

[6] = tested on: fatty acid synthetase (FAS); assay: Example 2: quantitative PCR of lipogenesis marker FAS; settings: 2 mg/kg p.o., 3 days a week, 28 days; vs vehicle
Method: as §1

Question: How did the number of lymphocytes ([1]; 1 mg/kg p.o.) turn out when `O=c1[nH]cnc2c(CN3C[C@H](CO)[C@@H](O)C3)c[nH]c12` [ulodesine hemi glutarate] was run?
Answer: The number of lymphocytes was “does not impact the number of lymphocytes”.

Question: What about the number of lymphocytes ([1]; 2 mg/kg p.o.) of the same molecule?
Answer: Its number of lymphocytes is “does not impact the number of lymphocytes”.

Question: And the number of lymphocytes ([1]; 5 mg/kg p.o.)?
Answer: The number of lymphocytes was “not significant at doses of 5 mg and 10 mg/kg, there appeared to be an observable decrease in lymphocytes”.

Question: And the number of lymphocytes ([1]; 10 mg/kg p.o.)?
Answer: The number of lymphocytes was “not significant at doses of 5 mg and 10 mg/kg, there appeared to be an observable decrease in lymphocytes”.

Question: What about the insulin sensitivity ([2]; 28 days) of the same molecule?
Answer: The insulin sensitivity was “improves insulin sensitivity”.

Question: And the “toxicity or adverse effects” value ([2]; 28 days)?
Answer: Its value is “no signs of any toxicity or adverse effects”.

Question: And the “decrease in weight gain” value ([2]; 28 days, ~50 g mice, vs control)?
Answer: Its value is “not significantly different from the control group”.

Question: What about the “NAD+ in whole blood” value ([2]; day 28, LC/MS/MS) of the same molecule?
Answer: The value was “significantly elevated”.

Question: What about the inosine in plasma ([2]; day 28, LC/MS/MS) of the same molecule?
Answer: Its inosine in plasma is “significantly elevated”.

Question: And the “expression of lipogenesis marker SCD-1 in WAT tissue” value [3]?
Answer: Its value is “decrease”.

Question: And the “expression of thermogenic marker UCP-1 in BAT tissue” value [4]?
Answer: The value was “increase in expression”.

Question: What about the “toxicity or adverse effects” value [5] of the same molecule?
Answer: Its value is “no signs of any toxicity or adverse effects”.

Question: What about the fasting blood glucose ([5]; vs control) of the same molecule?
Answer: The fasting blood glucose was “decrease in blood glucose”.

Question: And the serum cholesterol ([5]; vs control)?
Answer: Its serum cholesterol is “decrease in blood glucose and serum cholesterol”.

Question: And the weight gain ([5]; ~40 g mice, vs control)?
Answer: Its weight gain is “significant decrease in weight gain”.

Question: And the “expression of lipogenesis marker FAS in WAT tissue” value [6]?
Answer: Its value is “decrease”.
